Laboratory results taken from patent US20240415878A1, “Compositions and Methods for Modulating Mitochondrial Function” (Board of Regents, The University of Texas System, priority 2021, published 2024).

Tests used:
[1] = HFD-fed WT mice treated with CPACC i.p.; format: in vivo
Procedure: CPACC treatment enhances adipose browning and lowers whole body weight. Given the potent mMg^2+ uptake inhibiting properties and low toxicity of CPACC, we hypothesized that CPACC could mimic Mrs2^−/− cellular phenotype. WT hepatocytes isolated from over 12 months old mice were treated with 50 μM CPACC for 48 hours. Control and CPACC treated hepatocytes were stained with BODIPY and TMRE for intracellular tracing using confocal imaging. […] Next it was determined if CPACC treatment affects the mitochondrial oxygen consumption rate. Freshly isolated WT hepatocytes were treated with 5-25 μM concentrations of CPACC for 16 hours before measurement of oxygen consumption rate. […] Since it was observed an enhancement of basal OCR in CPACC treated hepatocytes, the extracellular acidification rate was measured in control and CPACC treated hepatocytes and found it to be higher in the CPACC condition indicating higher glycolytic activity (FIG. 11G). Having observed that pharmacologic blockade of Mrs2 by CPACC reduced lipid droplet size and enhanced mitochondrial function, it was asked whether in vivo administration of CPACC lowers body weight gain. 12 weeks HFD-fed WT mice were treated with CPACC (20 mg/kg) via intraperitoneal injection every three days over 6 weeks. […] Because it was observed browning/beiging in Mrs2^−/− iWAT, UCP1 expression by RT-qPCR was tested, confirming induction in the iWAT of CPACC treated mice.
Animal models. Wild-type (WT) and Mrs2^−/− (KO) C57BL/6J mice were housed and maintained in our animal breeding facility with prior approval and accordance with the Institutional Animal Care and Use Committee (IACUC). Mice were fed a Western Diet (WD; Research Diets D09100310), a standard Chow Diet (CD; Envigo 7012), or a High Fat Diet (HFD; Research Diets D12492). For most experiments, WT and KO mice were maintained on the WD or the CD starting at 12 weeks of age. With termination at 12 months. WT mice maintained on a HFD starting at 6 weeks were administered control (saline) or CPACC (20 mg/kg BW in saline) I.P. every 3 days starting after 6 weeks of maintained diet. Body weight, health, and food were measured regularly for all groups. […]
Plasma alanine transaminase activity and citrate measurements. Liver function and damage was determined by measuring alanine transaminase (ALT). The ALT activity in the plasma was determined using the Alanine Transaminase Activity Assay Kit (Abcam ab105134) following manufacturer's protocol. The plasma ALT levels over two different time points were obtained and corresponding ALT activity was determined by reading in a plate reader at 570 nm. […] Citrate levels were determined using the Citrate Assay Kit (Abcam ab83396) by reading in a plate reader at 570 nm following the manufacturer's protocol. […]

[2] = tested on: hepatocytes; experiment: Cellular uptake assay (GFAAS, Co normalised to protein); format: in vitro ADME, murine; details: intact hepatocytes
Procedure: Cellular uptake assay. Hepatocytes were treated with varying doses of CPACC for 30 minutes, cells were washed in Ca^2+ and Mg^2+ free DPBS, and cell pellets flash-frozen. Pellets were suspended in ice cold lysis buffer (0.1% Triton X-100 and 0.2% HNO3 in ultrapure water). The suspension was vortexed for 30 s and incubated on ice for 45 min. The cell lysate was centrifuged, and the supernatant was transferred to a clean tube prior to analysis. The Co^3+ content of the lysate was determined using graphite furnace atomic absorption spectroscopy (GFAAS) and was normalized to the protein content of the sample, which was determined using the bicinchoninic acid (BCA) assay kit following manufacturer instructions (ThermoFisher). Results are reported as the average mass ratio of Co to protein (pg/μg) in each sample±SEM.

[3] = target: T1, Mrs2 (Mus musculus, UniProt Q5NCE8); experiment: Mrs2 inhibition in intact hepatocytes loaded with Mag-Green-AM, confocal, L-lactate stimulation; format: cell-based, murine; details: 5 μM
T1 construct: endogenous in cells; host or cells: primary murine hepatocytes (C57BL/6J mice)
T1 sequence (Q5NCE8 54-434): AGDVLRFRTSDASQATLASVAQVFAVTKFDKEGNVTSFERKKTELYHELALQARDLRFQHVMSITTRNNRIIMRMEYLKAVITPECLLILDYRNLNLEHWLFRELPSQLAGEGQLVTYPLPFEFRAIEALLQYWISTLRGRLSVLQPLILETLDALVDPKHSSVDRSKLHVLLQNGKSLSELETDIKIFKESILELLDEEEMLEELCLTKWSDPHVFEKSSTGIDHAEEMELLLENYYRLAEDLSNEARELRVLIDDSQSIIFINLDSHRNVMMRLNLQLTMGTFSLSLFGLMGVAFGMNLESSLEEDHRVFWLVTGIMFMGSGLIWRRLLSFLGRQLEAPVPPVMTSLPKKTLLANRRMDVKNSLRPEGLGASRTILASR
Procedure: Bacterial CorA forms a pentameric complex that selectively drives Mg2+ uptake in an electrogenic manner. […] Mrs2 is the eukaryotic homologue of CorA and contains two transmembrane domains with a well-conserved F/Y-G-M-N motif; therefore, CorA blockers were tested to determine if they alter Mrs2-mediated mMg^2+ uptake (Moomaw and Maguire, 2008). Digitonin permeabilized hepatocytes were utilized to measure the inhibitory effect and determine its IC50. Permeabilized cells were treated with CPACC followed by a 1 mM bolus of MgCl2 (FIG. 10B). A 1 mM Mg^2+ bolus was added after baseline recording, and the extramitochondrial Mg^2+ clearance was used as a read-out for Mrs2-mediated mMg^2+ uptake using Mag-Green as a Mg^2+ indicator. […] We next investigated Mrs2 inhibition in intact hepatocytes loaded with Mag-Green-AM. […] Next CPACC was examined to determine if it had any effect on MCU-mediated mCa^2+ uptake in permeabilized cells. […] The availability of the compound to intact cells was measured using graphite furnace atomic absorption spectroscopy (GFAAS) and bicinchoninic acid in parallel. […] Encouraged by the potent inhibitory effect of CPACC and cellular permeability, we next measured the cytotoxicity of CPACC in cells. […]
Evaluation of dose dependent Mrs2 inhibition by confocal live cell imaging system. […] Data was quantified using Leica Application Suite X.

## [NH2][Co]([NH2])([NH2])([NH2])([NH2])[Cl] [CPACC, chloropentaammine cobalt (III) chloride]
[1]; HFD mice, 20 mg/kg i.p.
  RT-qPCR analysis of WAT tissue (HIF-1α pathway): transcriptional signature of HIF-1α activation
[1]; HFD-fed WT mice, 20 mg/kg i.p.
  UCP1 expression in iWAT by RT-qPCR: induction
[1]; HFD-fed WT mice, 20 mg/kg i.p. every three days over 6 weeks
  body weight gain: restricted body weight gain
[1]; HFD-fed WT mice, 20 mg/kg i.p., versus control group
  Plasma ALT levels: lower
[2]
  cellular accumulation of the compound (intracellular Co): accumulates in the cell in a dose-dependent manner
[3]
  Mitochondrial Mg^2+ uptake following L-lactate stimulation: significantly inhibited
